Data: paper PMC8767159, “Multiparameter Optimization of Trypanocidal Cruzain Inhibitors With In Vivo Activity and Favorable Pharmacokinetics” (Frontiers in Pharmacology, 2022)

What was measured:
[1] = Cytotoxicity MTS assay in HFF-1 fibroblasts; assay type: cell-based; conditions: human HFF-1 fibroblasts
Procedure: The synthesized compounds were evaluated for their cytotoxicity against HFF-1 cells using the MTS assay (Promega, Madison, WI) ([Barltrop et al., 1991]) as previously described ([Ferreira et al., 2019]). HFF-1 fibroblasts were plated at 2 × 10^3/well in 96-well culture plates in RPMI 1640 without phenol red enriched with 10% FCS and incubated overnight at 37°C and 5% CO2. Next, 7 concentrations (0.1–100 µM) of the compounds were added in 3-fold serial dilutions, each concentration in triplicate, and the plates were incubated for 72 h at 37°C and 5% CO2. Next, 20 µl of MTS was added to each well, and the plates were incubated for an additional 4 h at 37°C and 5% CO2. The absorbance was measured at 490 nm using a spectrophotometer, and the data were transferred to SigmaPlot 10.0 (Systat Software Inc., Erkrath, Germany) to determine the IC50 values. Doxorubicin (Sigma–Aldrich) was used as a positive control, and untreated wells (100% growth) were used as negative controls in all plates. All compounds were tested in two independent assays.

[2] = In vitro metabolic stability in mouse liver microsomes; assay type: in vitro ADME; conditions: for CLint (L/h/kg) Mouse: Table S5; for CLint_u (L/h/kg) Mouse: Table S5, CLint/fu
Procedure: (§1) Isolated mouse (BD Gentest, Bedford, MA) and human liver microsomes (XenoTech, Kansas City, KS) ([Plant, 2004]) were added at a final concentration of 0.25 mg/ml to a solution containing 40 mM dibasic potassium phosphate and 10 mM monobasic potassium phosphate. Stock solutions of compounds at 5 mM were prepared in 100% DMSO. A 50:50 quenching solution of acetonitrile (ACN) and methanol (MeOH) was prepared. An NADPH solution was prepared at 10 mM. The preparations containing the microsomes were added to each well of the incubation plate (450 µl), which was then heated to 37°C for 10 min. The compounds were added to the respective wells of the test plate (2 µl). Then, 300 µl of the microsome preparation was added to each well of the test plate. The test plate was heated under gentle rotation for 5 min at 37°C. Next, 90 µl of the mixture contained in the test plate was added to the incubation plate, making a final volume of 540 µl. Samples were collected at the following incubation times: 0, 5, 10, 15, 20, and 30 min. To the 0 min sample plate, quenching solution (180 µl), NADPH (6 µl), and the incubation plate mixture (54 µl) were added to each well. The sample plate was then sealed, homogenized, and stored at 4°C. Then, 54 µl of the NADPH solution was added to the incubation plate, which was homogenized. Before the collection of each sample at the established times, 45 µl of the quenching solution was added to each well of the corresponding sample plates. After reaching the incubation times, 60 µl of the mixture contained in the incubation plate was added to the corresponding sample plates. The sample plates were then sealed and stored at 4°C. After the collection of the last sample (30 min), all sample plates were centrifuged at 3,800 rpm for 30 min. The supernatant from each well was collected and transferred to clean plates for mass spectrometry. Five to 10 µl of each sample was injected into an AB Sciex Triple Quad 5500 LC-MS/MS instrument.
(§2) For the biotransformation experiments and analysis of metabolites in microsomes, an Ultra-High-Pressure Liquid Chromatography instrument (UHPLC, Thermo Accela, Waltham, MA) ([Spaggiari et al., 2014]) connected to an automatic sample injector and a 1250 series pump was used. The UHPLC system was connected to a Thermo Fisher (Waltham, MA) LTQ Orbitrap mass spectrometer. For all other analyses, an AB Sciex Triple Quad 5500 coupled to a UHPLC equipped with a UV 1290 diode detector (Agilent Technologies, Santa Clara, CA) and a CTC PAL self-collecting system (LEAP Technologies, Carrboro, NC) was used. Q1 MS positive ion mode (300–500 Da) was used to detect the ions of the parent compounds. The UV detector was operated in spectral mode (250–280 nm). A Hypersil Gold C18 (2.1 mm × 100 mm, 1.9 µm, Thermo Fisher) HPLC column was used. The mobile phases were solvent A (0.1% formic acid in water) and solvent B (0.1% formic acid in ACN). The flow was adjusted to 0.55 ml/min, and the injection volume was adjusted to […]. The gradient started with 1% solvent B for 0.4 min, reached 40% (solvent B) in 2.3 min and 95% (solvent B) in 0.67 min, was maintained for 0.5 min, and returned to the initial condition of 1%. This condition was maintained for 1 min before injection of the next sample. The peak area ratio (peak area of the test compounds/peak area of the control compounds) was converted to the percentage of remaining compound, with the 0 min time point ratio set to 100%. T½ and CLint were calculated from the percentage of remaining compound versus the incubation time. From the resulting function, the slope (k) was determined. The equations T1/2 (min) = ln(2)/k and CLint in vitro (μL/min/mg) = k*1000/0.25 were used to determine T½ and CLint.

[3] = Fraction unbound by equilibrium dialysis; assay type: in vitro ADME; conditions: Table S5; fraction unbound
Procedure: The fraction unbound (fu) ([Masimirembwa et al., 2003]) of the test compounds was determined after incubation with different media, namely, plasma, microsomes, and buffer with 10% FCS. Equilibrium dialysis was performed in a 96-well plate (HT-Dialysis, Gales Ferry, CT) in which each well was divided by a semipermeable membrane (12–14 kDa cutoff). The test compounds diluted in either plasma, microsome suspension, or buffer were added to one side of the membrane. Potassium phosphate buffer (50 mM, pH 7.4) was added to the other side of the membrane. A standard curve was used to calculate the compound concentration (fu) on each side of the membrane. Stock solutions of each compound were prepared in 100% DMSO to obtain a final concentration of 1 mM. The following compound concentrations were used: 1, 2, 20, 200, 2,000 and 5,000 nM. To 500 μl of medium, 0.5 μl of the compound stock solution was added, and this was applied to one side of the well. Each compound was evaluated in triplicate. Next, the plate was assembled, sealed, and incubated at 37°C under rotation (150 rpm) for 4 h. After the incubation period, the plates were subjected to LC-MS/MS.

[4] = In vitro metabolic stability in human liver microsomes; assay type: in vitro ADME; conditions: for CLint (L/h/kg) Human: Table S5; for CLint_u (L/h/kg) Human: Table S5, CLint/fu
Procedure: as §1, §2

Row | Compound | IC50 at 72 h [1] [nM] | CLint (L/h/kg) Mouse [2] [L/h/kg] | CLint_u (L/h/kg) Mouse [2] | fu [3] | CLint (L/h/kg) Human [4] [L/h/kg] | CLint_u (L/h/kg) Human [4]
1 | COc1cccc2c1C(=O)c1c(O)c3c(c(O)c1C2=O)C[C@@](O)(C(=O)CO)C[C@@H]3O[C@H]1C[C@H](N)[C@H](O)[C@H](C)O1 [Doxorubicin, reference compound] | 260 | – | – | – | – | –
2 | Nc1ccccc1OCC(=O)NCCc1nc2ccccc2[nH]1 [Compound 42] | – | 24.80 | 29.45 L/h/kg | 0.84 | 3.91 | 4.64 L/h/kg
3 | Cc1ccc2[nH]c(CCNC(=O)COc3ccc4ccccc4c3Br)nc2c1 [Compound 54] | – | 528.00 | – | 0.05 | 65.00 | 1,334.7 L/h/kg
4 | CC(=O)NCCc1nc2ccccc2n1CCOCc1ccccc1 [Compound 56] | – | 95.10 | 98.14 L/h/kg | 0.97 | 4.75 | 4.90 L/h/kg
5 | COc1ccc2[nH]c(CCNC(=O)COc3ccc4ccccc4c3Br)nc2c1 [Compound 53] | – | 500.00 | 2,793.30 L/h/kg | 0.18 | 72.40 | 404.47 L/h/kg
6 | O=C(CCOc1ccccc1)NCCc1nc2ccccc2[nH]1 [Compound 49] | – | 86.20 | 86.20 L/h/kg | 1.00 | 3.28 | 3.28 L/h/kg
7 | Cc1ccccc1OCC(=O)NCCc1c[nH]c2ccccc12 [Compound 50] | – | 790.00 | 1,292.96 L/h/kg | 0.61 | 23.60 | 38.63 L/h/kg
8 | COc1ccc(C(=O)Cn2c(CCNC(=O)COc3ccc4ccccc4c3Br)nc3ccccc32)cc1 [Compound 63] | – | 50.10 | 2,609.38 L/h/kg | 0.02 | 40.40 | 2,104.17 L/h/kg
9 | O=C(COc1ccc2ccccc2c1Br)NCCc1nc2cc(Cl)ccc2[nH]1 [Compound 52] | – | 407.00 | – | 0.02 | 41.60 | 2,122.45 L/h/kg
10 | O=C(COc1ccc2ccccc2c1Br)NCCc1nc2ccccc2n1CCC(=O)c1cccs1 [Compound 61] | – | 355.00 | – | 0.04 | 157.00 | 3,634.26 L/h/kg
11 | O=C(COc1ccccc1Cl)NCCc1nc2ccccc2[nH]1 [Compound 40] | – | – | 419.09 L/h/kg | 0.86 | 19.50 | 22.70 L/h/kg
12 | O=C(COc1ccc2ccccc2c1O)NCCc1nc2ccccc2[nH]1 [Compound 47] | – | 655.00 | 939.71 L/h/kg | 0.72 | – | 35.00 L/h/kg
13 | O=C(COc1ccccc1I)NCCc1nc2ccccc2[nH]1 [Compound 41] | – | 683.00 | 1,082.41 L/h/kg | 0.63 | 39.40 | 62.44 L/h/kg
14 | Cc1cc(C)c(C#N)c(SCC(=O)NCCc2nc3ccccc3[nH]2)n1 [Compound 59] | – | 433.00 | 453.17 L/h/kg | 0.96 | 61.50 | 64.36 L/h/kg
15 | O=C(COc1ccc2ccccc2c1CO)NCCc1nc2ccccc2[nH]1 [Compound 46] | – | 757.00 | 981.84 L/h/kg | 0.77 | 24.70 | 32.04 L/h/kg
